This assay has as its target T1, Or67d (Or67d^+[1]) (Drosophila melanogaster, UniProt Q9VT92).
T1 construct: native full-length receptor in trichoid T1 sensilla of living flies; with Odorant receptor coreceptor
T1 sequence (Q9VT92 1-391): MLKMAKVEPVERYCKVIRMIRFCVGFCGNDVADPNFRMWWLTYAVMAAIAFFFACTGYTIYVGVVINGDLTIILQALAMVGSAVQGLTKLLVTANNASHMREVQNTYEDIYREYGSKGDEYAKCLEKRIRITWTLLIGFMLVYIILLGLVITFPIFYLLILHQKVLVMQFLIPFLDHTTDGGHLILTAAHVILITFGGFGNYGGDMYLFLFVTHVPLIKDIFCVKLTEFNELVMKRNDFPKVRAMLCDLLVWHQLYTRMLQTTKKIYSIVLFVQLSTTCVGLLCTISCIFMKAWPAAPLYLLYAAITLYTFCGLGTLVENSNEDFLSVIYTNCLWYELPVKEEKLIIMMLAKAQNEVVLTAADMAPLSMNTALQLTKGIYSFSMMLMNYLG
T1 sequence (Q9VNB5 1-486 partner): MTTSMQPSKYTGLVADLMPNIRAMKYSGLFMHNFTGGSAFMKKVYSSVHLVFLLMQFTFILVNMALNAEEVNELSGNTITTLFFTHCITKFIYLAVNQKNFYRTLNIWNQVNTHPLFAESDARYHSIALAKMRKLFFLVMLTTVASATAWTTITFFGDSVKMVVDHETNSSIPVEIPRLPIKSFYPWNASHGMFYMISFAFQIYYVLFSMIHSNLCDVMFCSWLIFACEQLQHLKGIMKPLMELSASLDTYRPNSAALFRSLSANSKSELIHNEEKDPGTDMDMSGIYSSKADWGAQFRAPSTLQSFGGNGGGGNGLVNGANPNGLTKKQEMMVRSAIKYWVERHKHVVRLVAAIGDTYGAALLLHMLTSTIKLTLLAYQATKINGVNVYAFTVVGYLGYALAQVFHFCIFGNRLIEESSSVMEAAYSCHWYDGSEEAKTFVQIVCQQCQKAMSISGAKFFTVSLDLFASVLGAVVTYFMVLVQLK
The assay is described as follows: single sensillum recording, Drosophila T1 trichoid sensilla. It counts as cell-based. As to conditions: 10 μg source dose on filter paper; agonist; n = 7.

Compound `CCCC/C=C\CCCCCCCCCCOC(C)=O` [Z11-16:OAc, (Z)-11-hexadecenyl acetate] gave a spikes/sec of 87 ± 15.87 spikes/sec.

Source of the values: article PMC4015405, “Specificity of the Receptor for the Major Sex Pheromone Component in Heliothis virescens” (Journal of Insect Science, 2013).
